Measurements as given in US10253002B2, “Compounds and methods of treating infections” (Neoculi Pty Ltd., priority 2013, dated 2019).
Like-named read-outs stand apart in the source and are kept apart here.

What was measured:
S. pneumoniae strain D39 [1] = test: Macro-broth dilution time kill studies; assay type: cell-based, Streptococcus pneumoniae
Procedure: Bacterial suspensions and working antibiotic stocks were prepared as described above. [For preparing macro-broth dilutions, 20 mL tubes were filled each with 9 mL of 4% LHB:CAMHB. 9 mL of a working antimicrobial stock was diluted 1:2 when added to one of the tubes, and then serial diluted down from a high to low concentration of antimicrobial. 1 mL of S. pneumoniae bacterial suspension was added to the appropriate tubes, including the positive control. […] At every 2-3 h during the first 12 h of growth and then at 24 h and 48 h, 50 μL of each bacterial suspension was spread plated onto HBA and incubated at 37° C. with 5% CO2 for 16-24 h.]
Table 17 below indicates the concentrations used for each antimicrobial. Cultures were incubated at 37° C. in 5% CO2 with gentle manual tilting every 10 min for the first 12 h. Viable counts from 50 μL aliquots of each concentration were read following incubation at 37° C. in 5% CO2 for 24 h. The pH of each sample was measured at specific time points using pH indicator strips. Confluent growth was defined when more than 1000 colonies were counted per plate. A bactericidal effect was defined as a 1000 fold reduction (99.9%) of the original cell suspension determined at 24 h for each concentration.

[2] = Solubility in DMSO and CAMHB, Example 4
From the text: Test antimicrobials were selected on the basis of solubility and antimicrobial activity from preliminary studies.

S. pneumoniae strain D39 [3] = test: Micro-broth dilution time kill studies; assay type: cell-based, Streptococcus pneumoniae; conditions: D39 treated with 54 μg/mL NCL812
Staphylococcus aureus = test: Mouse skin wound infection model, topical treatment; assay type: in vivo, mice; conditions: 14 treatments
From the text: Preliminary studies prior to the conduct of the current study established a new method of skin infection arising from a detailed study of the models mentioned above. Briefly, study mice are anaesthetised, a patch of dorsal skin is clipped to reveal the skin and a circular area of skin is removed with a hand held punch, leaving a wound on the dorsum with a central cavity. The wound is infected with a known number of the challenge organism. Approximately four to six hours after infection, the wound is either treated topically with a vehicle formulation or an active formulation. The infected skin wound is retreated every 12 hours for a total of 14 treatments. Mice are humanely euthanased, the area of the original infected wound is dissected and removed and its bacterial content quantified by standard microbiologic tests. In this way, the change in bacterial concentration due to treatment with the active formulation can be readily determined by examining the reduction in bacterial burden compared with the vehicle control. Fresh cultures of bacteria (Staphylococcus aureus) were grown on Sheep Blood Agar at 37° C. for 16-18 hours. A few typical colonies were selected and suspended in 10 ml of Tryptic Soy Broth and incubated overnight in a shaking incubator (240 rpm) at 37° C. The overnight suspension was vortexed and diluted (1:100) in fresh Tryptic soy broth (100 μl [0.1 ml] in 9.9 ml broth). The fresh suspension was incubated for 3 hours in a shaking incubator (as above) in order to obtain mid-logarithmic phase bacteria. Bacteria were pelleted through centrifugation at 7,500 rpm for 10 mins. Broth supernatant was removed and bacteria suspended in 10 ml Phosphate Buffered Saline (PBS). These steps were repeated a further two times. The density of the suspension was checked by measuring absorbance at 600 nm, using a spectrophotometer with saline as a blank, to confirm the target density at a reading of approximately 0.100, consistent with a bacterial density of 2.5×10^7 CFU/ml. The suspension was placed into a rack placed into a lockable transport box with an ice brick to maintain refrigeration during transport, followed by storage in cool room upon arrival at the mouse skin infection laboratory. Final suspension was mixed thoroughly before inoculating the skin wounds created in mice. […] Eyes of each anaesthetised mouse were covered with veterinary eye lubricant in order to prevent corneal dehydration. Each mouse removed from induction chamber and placed onto surgical area, in front of individual aesthetic nose cone. While under anaesthesia each mouse was monitored for assessment of depth of anaesthesia (response to pain, blink reflex, skeletal muscle tone) and respiratory and cardiac function. Back skin hair was shaved from surgical area with mechanical clippers. […] Once the iodine solution was dry, a subcutaneous injection of the nonsteroidal anti-inflammatory agent meloxicam was administered. Dorsal skin was pinched gently to allow creation of a circular full-thickness wound using ear punch/biopsy punch. […] Once the bacterial suspension was dry, mice were placed into individual recovery boxes labelled with the mouse number. The time of inoculation was recorded. Initial body weights of each mouse were recorded on the appropriate score sheet. Mice recovered to full consciousness within 5 minutes. Recovered mice were returned to individual housing and monitored hourly for post-surgical or anaesthetic complications. […] Each ointment container was weighted prior to administration and the weight recorded. Each mouse was carefully restrained. […] The weight of the ointment container post-administration was recorded. […] At the end of the 7 day skin wound assessment period, all test mice were euthanased prior to wound collection for post mortem examination. The skin wound was dissected from the dorsum of each mouse. The sample was placed in a sample tube and weighed before 1 ml PBS and sterile tissue homogenisation beads were added. […]

[4] = Release from Formulation B, Franz diffusion cells; assay type: physicochemical; conditions: absolute ethanol receptor, 32±1° C., up to 24 hours
Procedure: Franz diffusion cells were utilized to quantify the release rate of NCL 812 and NCL099 from its topical formulations. Five milliliters of absolute ethanol, which was chosen as the desired release medium, was loaded into the receptor chamber. Temperature of the receptor fluid was kept constant, at 32±1° C. using a water jacket. Acetyl cellulose membranes, with pore size of 0.45 μm (Pall Corporation) was selected and placed between donor and receptor chamber. Followed by that, a number of test samples (Formulation B) was loaded into the donor chamber. One milliliter of receptor fluid was collected at regular time intervals of 0.25, 0.50, 0.75, 1, 2, 3, 4, 5, 6, 7, 8 and 24 hours through the sampling port. One milliliter of fresh absolute ethanol was immediately returned to the receptor chamber. UV-HPLC was utilized to analyse the content of the receptor fluids attained.

[5] = Visual analysis of solubility in diluents and media, Example 5; assay type: physicochemical
S. pneumoniae strain D39 [6] = test: microbe, parasite or virus in culture; assay type: cell-based; conditions: Streptococcus pneumoniae
Procedure: Macro-broth dilutions were prepared as above. […] Samples were centrifuged at a relative centrifugal force (RCF) of 101.45×g for 10 min and washed in 50 mL of phosphate buffered saline (PBS) twice to remove any residual antimicrobial, and/or bacterial end products and media. Washed bacteria were resuspended and MICs were performed.

| SMILES | growth in viable counts (S. pneumoniae strain D39 [1]; 2 μg/mL NCL812) | time post-exposure at which compound appeared to be inactivated (increased growth after) (S. pneumoniae strain D39 [1]; NCL812 at 4 μg/mL and 8 μg/mL) | time to eliminate bacterial growth (S. pneumoniae strain D39 [1]; between 16 μg/mL and 64 μg/mL NCL812) | Solubility CAMHB ([2]; cation-adjusted Mueller-Hinton II broth) | Solubility DMSO ([2]; dimethyl sulfoxide) | time at which treated D39 entered a log phase of growth (S. pneumoniae strain D39 [3]) | mean colony count per g of tissue, log10 (Staphylococcus aureus; mice, Formulation B 20 mg/g topically every 12 hours, vehicle 6.77) | mean colony count per g of tissue (Staphylococcus aureus; mice, Formulation B 20 mg/g topically every 12 hours, vehicle 5,888,436) | % reduction (of colony forming units per gram of tissue versus vehicle) (Staphylococcus aureus; mouse skin wound infected with Staphylococcus aureus, topical ointment (Formulation B, 20 mg/g) every 12 hours, end of 7 day period, relative to vehicle group) | Log10 (CFU/g): colony forming units per gram of tissue (Staphylococcus aureus; mouse skin wound infected with Staphylococcus aureus, topical ointment (Formulation B, 20 mg/g) every 12 hours, wound tissue at end of 7 day period, group mean) | release profile from Formulation B [4] | Visual analysis of solubility ([5]; Diluent CAMHB) | Visual analysis of solubility ([5]; Diluent DMSO) | Visual analysis of solubility ([5]; Diluent PBS) | Visual analysis of solubility ([5]; Media 4% LHB:CAMHB) | Visual analysis of solubility ([5]; Media 10% horse serum-supplemented broth) | MBC (S. pneumoniae strain D39 [6]; D39, 6 h, read-out: MBC of D39 following exposure to NCL-812 for 6 hrs) | MIC (S. pneumoniae strain D39 [6]; D39, 6 h, read-out: MIC of D39 following exposure to NCL-812 for 6 hrs.) | MBC (S. pneumoniae strain D39 [6]; D39, read-out: Original MBC of D39) | MIC (S. pneumoniae strain D39 [6]; D39, read-out: Original MIC of D39) |
| --- | --- | --- | --- | --- | --- | --- | --- | --- | --- | --- | --- | --- | --- | --- | --- | --- | --- | --- | --- | --- |
| N=C(N/N=C/c1ccc(Cl)cc1)N/N=C/c1ccc(Cl)cc1 [NCL812, 1,3-bis[(E)-(4-chlorophenyl)methyleneamino]guanidine] | Consistent confluent growth | 11 h | ≤ 8 h | Cloudy precipitates | Good | 6 h | 5.15 log10 | 141,254 | 97.6% | 5.15 Log10 (CFU/g) | acceptable release profile | Turbid | Transparent | Precipitate | Turbid | Precipitate |  |  |  |  |
| CC1(C)S[C@@H]2[C@H](NC(=O)[C@H](N)c3ccccc3)C(=O)N2[C@H]1C(=O)O [Ampicillin] |  |  |  |  |  |  |  |  |  |  |  |  |  |  |  |  | 0.023 µg/mL | 0.045 µg/mL | 0.023 µg/mL | 0.023 µg/mL |
